The source of these data is patent US6344456B1, “Piperazinone derivatives and their uses” (Laboratoire L. Lafon, priority 1998, dated 2002).

Counter-ions that a name gives are not always drawn. Like-named read-outs stand apart in the source and are kept apart here.

One experiment deals with Guinea Pig Platelets. Put plainly: In vitro inhibition of collagen-induced platelet aggregation, guinea pig platelet-rich plasma. In kind it is cell-based. Conditions: guinea pig PRP, collagen 1 μg/ml, 3 minutes of contact at 37° C. On the procedure: (§1) A study of the inhibitory activity of the compounds of formula I on platelet aggregation was carried out in vitro, i.e. by direct contact of solutions of variable concentrations of the compounds with platelets freshly separated from a sample of whole blood, taken under standardized conditions, from laboratory animals (guinea pigs) and from healthy human subjects who have not received any substances or drugs that might interfere with blood clotting. The anti-platelet-aggregating activity was also studied ex vivo/vitro, i.e. after administration of the substances claimed in guinea pigs to measure the intensity and duration of the anti-aggregating action induced by the fraction of the test product absorbed and circulating in the blood.
1.1. Studies on Guinea Pig Platelets
Blood is taken by intracardiac puncture from male Dunkin-Hartley guinea pigs (weighing about 330 g), at a rate of 4.5 ml per 0.5 ml of trisodium citrate (concentration of the aqueous solution: 1.55%) in order to prevent all trace of clotting. The platelet-rich plasma (PRP) is obtained by centrifuging the tubes of whole blood for 15 minutes at 150 g.
The PRPs are collected as. “pools”. The platelets contained in these pools are counted using a Coulter ZM haematology automatic device: if necessary, a dilution is carried out in order for the platelet concentration in the plasma to be between 200,000 and 400,000 platelets/mm^3. Simultaneously, other samples of these pools serve to prepare the platelet-poor plasma (PPP) by centrifugation at 1,500 g for 15 minutes.
The kinetic study of the platelet aggregation is carried out by adding a collagen solution (1 μg/ml) to a volume of PRP, using a Chrono-log Corporation aggregometer (490-D1 or 560 VS) which uses an optical detection of the appearance of the thrombus.
The measurements of the aggregation inhibition are carried out after 3 minutes of contact at 37° C. with agitation.

The test system of a further experiment is Human Platelets. Put plainly: In vitro inhibition of collagen-induced platelet aggregation, human platelet-rich plasma. In kind it is cell-based. To be noted: human PRP, collagen 5 μg/ml, 3 minutes of contact at 37° C., read-out: IC50 (M) in vitro Man. On the procedure: A study of the inhibitory activity of the compounds of formula I on platelet aggregation was carried out in vitro, i.e. by direct contact of solutions of variable concentrations of the compounds with platelets freshly separated from a sample of whole blood, taken under standardized conditions, from laboratory animals (guinea pigs) and from healthy human subjects who have not received any substances or drugs that might interfere with blood clotting. The anti-platelet-aggregating activity was also studied ex vivo/vitro, i.e. after administration of the substances claimed in guinea pigs to measure the intensity and duration of the anti-aggregating action induced by the fraction of the test product absorbed and circulating in the blood. 1.2 Study on Human Platelets Venous blood is taken from a group of ten healthy human subjects of the same age, by puncture into a vein of the fold of the elbow and is collected in a glass tube containing aqueous 0.129 M sodium citrate solution (1 volume of citrate solution per 9 volumes of blood). Each tube is then centrifuged a first time at 20° C. and 100 g for 15 minutes in order to obtain the platelet-rich plasma (PRP); after removing this PRP, the tube is again centrifuged at 2,000 g for 15 minutes in order this time to remove the platelet-poor plasma (PPP). For each identified sample of PRP, the platelets are counted using a Coulter ZM counter. […] A control test intended to check the possible effect of the solvents (reference value) on the platelet aggregation is introduced into each measurement series, and is measured after 3 minutes of contact at 37° C. with agitation.

Experiment [1] concerns platelet aggregation induced by collagen. Put plainly: Ex vivo/vitro anti-platelet-aggregating activity in guinea pigs after gastric administration. Also on record: species or system guinea pig. To be noted: for % of g.r. inhibition guinea pig ex vivo d = 150 mg/kg −1 h: administered 1 h before blood is taken; for % of g.r. inhibition guinea pig ex vivo d = 150 mg/kg −2 h: administered 2 h before blood is taken; for anti-aggregating action ex-vivo in guinea pigs, oral dose 10 mg/kg, 1h: administered 1h before the aggregation test. On the procedure:
as §1
2. ex vivo/vitro Pharmacological Study in Guinea Pigs
Evaluation of the anti-platelet-aggregating activity of the compounds is carried out in the same guinea pigs as those mentioned above (Dunkin-Hartley strain). The administration of each product in a range of doses from 150 mg/kg to 10 mg/kg and of each vehicle (5 ml/kg) is carried out via the gastric route (g.r.) 1h or 2h or 4h or 6h or 8h or 12h before blood is taken from the guinea pigs fasted the day before. The allocation of the treatments to the animals is random.
The blood is taken and then treated under the same conditions as those described above for the in vitro studies.
The results of the inhibition of the platelet aggregation obtained for each test concentration make it possible to calculate the IC50 concentration of each test product and the kinetics of the inhibitory effect and its duration of action.

Setting [2] is: Cavia porcellus, Platelet, 0.05 h.

Compound `CCOC(=O)CC(NC(=O)CN1CCN(c2ccc(C(=N)N3CCCCC3)cc2)CC1=O)c1ccc2c(c1)OCO2` (stereo not shown) [Example 34, Ethyl 3-(1,3-benzodioxol-5-yl)-3-{[2-(4-{4-[imino(piperidino)methyl]phenyl}-2-oxopiperazino)-acetyl]amino}propanoate hydrochloride] yielded an IC50 in the experiment with Guinea Pig Platelets (setting [2]) of 0.99 µM.
For the compound “Ethyl 3-{[2-(4-{4-[amino(imino)methyl]phenyl}-2-oxopiperazino)-acetyl]amino}-3-(pyridyl)propanoate acetate [Example 20]”, the IC50 with Human Platelets is 2.8e-05 M. Also, in experiment [1], the “% of g.r. inhibition guinea pig ex vivo d = 150 mg/kg −1 h” value was −65% and the “% of g.r. inhibition guinea pig ex vivo d = 150 mg/kg −2 h” value is reported as −64%. In the experiment on Guinea Pig Platelets, this compound came in with an IC50 of 0.63 µM.
For `CCOC(=O)CC(CCc1ccccc1)NC(=O)CN1CCN(c2ccc(C(=N)N)cc2)CC1=O` (stereo not shown) [Example 22, Ethyl 3-{[2-(4-{4-[amino(imino)methyl]phenyl}-2-oxopiperazino)acetyl]amino}-5-phenylpentanoate acetate], the IC50 was 7.1e-05 M in the experiment with Human Platelets (Platelet, 0.05 h) and 0.51 µM with Guinea Pig Platelets (setting [2]).
As to “Ethyl 3-{[2-(4-{4-[amino(hydroxyimino)methyl]phenyl}-2-oxopiperazino)acetyl]amino}-3-(pyridyl)propanoate [Example 5]”, in experiment [1], the “% of g.r. inhibition guinea pig ex vivo d = 150 mg/kg −1 h” value is on record as −72% and the “% of g.r. inhibition guinea pig ex vivo d = 150 mg/kg −2 h” value was −75%. In the experiment with Guinea Pig Platelets, this compound had an IC50 of 100 µM.
As to `CC(=O)O.CCOC(=O)CC(NC(=O)CN1CCN(c2ccc(C(=N)N)cc2)CC1=O)c1ccc2c(c1)OCO2` (stereo not shown) [Example 18, Ethyl 3-{[2-(4-{4-[amino(imino)methyl]phenyl}-2-oxopiperazino)acetyl]amino}-3-(1,3-benzodioxol-5-yl)propanoate acetate], the IC50 is 8.1e-05 M in the experiment with Human Platelets (Platelet, 0.05 h) and 0.2 µM with Guinea Pig Platelets (setting [2]). In addition, the “% of g.r. inhibition guinea pig ex vivo d = 150 mg/kg −1 h” value in experiment [1] is listed as −70%. The “% of g.r. inhibition guinea pig ex vivo d = 150 mg/kg −2 h” value in experiment [1] is on record as −69%.
Turning to `CCOC(=O)CC(CCc1ccccc1)NC(=O)CN1CCN(c2ccc(C(=N)N3CCCCC3)cc2)CC1=O` (stereo not shown) [Example 32, Ethyl 3-{[2-(4-{4-[imino(piperidino)methyl]phenyl}-2-oxopiperazino)acetyl]amino}-5-phenylpentanoate], half-maximal inhibition in the experiment on Guinea Pig Platelets (setting [2]) (IC50) was put at 2.4 µM.
On the same count and under the same terms, the result for `CCOC(=O)CC(NC(=O)CN1CCN(c2ccc(C(=N)N3CCOCC3)cc2)CC1=O)c1ccc2c(c1)OCO2` (stereo not shown) [Example 35, Ethyl 3-(1,3-benzodioxol-5-yl)-3-{[2-(4-{4-[imino-(morpholino)methyl]phenyl}-2-oxopiperazino)acetyl]-amino}propanoate hydrochloride] reads 0.47 µM.
For `CCOC(=O)CC(NC(=O)CN1CCN(c2ccc(C(N)=NO)cc2)CC1=O)c1ccc2c(c1)OCO2` (stereo not shown) [Example 3, Ethyl 3-{[2-(4-{4-[amino(hydroxyimino)methyl]phenyl}-2-oxopiperazino)acetyl]amino}-3-(1,3-benzodioxol-5-yl)propanoate], in experiment [1] (10 mg/kg), the “anti-aggregating action ex-vivo in guinea pigs, oral dose 10 mg/kg, 1h” value is listed as 69%. Moreover, the “anti-aggregating action ex-vivo in guinea pigs, oral dose 10 mg/kg, 2h” value in experiment [1] (10 mg/kg, administered 2h before the aggregation test) is on record as 72%. Also, in experiment [1], the “% of g.r. inhibition guinea pig ex vivo d = 150 mg/kg −1 h” value is given as −72% and the “% of g.r. inhibition guinea pig ex vivo d = 150 mg/kg −2 h” value is reported as −69%.
For the compound `CCOC(=O)CC(NC(=O)CN1CCN(c2ccc(C(=N)N)cc2)CC1=O)C(C)C` (stereo not shown) [Example 26, Ethyl 3-{[2-(4-{4-[amino(imino)methyl]phenyl}-2-oxopiperazino)acetyl]amino}-4-methylpentanoate acetate], in the experiment with Guinea Pig Platelets (setting [2]), the IC50 stood at 4.5 µM.
Regarding `CCOC(=O)CCNC(=O)CN1CCN(c2ccc(C(N)=NO)cc2)CC1=O` [Example 1, Ethyl 3-{[12-(4-{4-[amino(hydroxyimino)methyl]phenyl}-2-oxopiperazino)acetyl]amino}propanoate], in experiment [1], the “% of g.r. inhibition guinea pig ex vivo d = 150 mg/kg −1 h” value is recorded as −72% and the “% of g.r. inhibition guinea pig ex vivo d = 150 mg/kg −2 h” value was −73%. In the experiment on Guinea Pig Platelets, this compound came in with an IC50 of over 1000 µM.
`Cl.N=C(N)c1ccc(N2CCN(CC(=O)NC(CC(=O)O)c3ccc4c(c3)OCO4)CC2=O)cc1` (stereo not shown) [Example 30, 3-{[2-(4-{4-[amino(imino)methyl]phenyl}-3-oxopiperazino)acetyl]amino}-3-(1,3-benzodioxol-5-yl)propanoic acid hydrochloride]: the IC50 in the experiment with Human Platelets (Platelet, 0.05 h) was 1.2e-06 M; with Guinea Pig Platelets (setting [2]) it was 15 µM. Besides, in experiment [1], the “% of g.r. inhibition guinea pig ex vivo d = 150 mg/kg −1 h” value was −14%. Besides, the “% of g.r. inhibition guinea pig ex vivo d = 150 mg/kg −2 h” value in experiment [1] is on record as −17%.
With “3-{[2-(4-{4-[amino(imino)methyl]phenyl}-2-oxopiperazino)acetyl]amino}-3-(pyridyl)propanoic acid acetate [Example 21]”, in the experiment on Human Platelets, the IC50 is 8.6e-07 M. In addition, in experiment [1], the “% of g.r. inhibition guinea pig ex vivo d = 150 mg/kg −1 h” value is reported as −78% and the “% of g.r. inhibition guinea pig ex vivo d = 150 mg/kg −2 h” value is on record as −79%. Further, the IC50 in the experiment with Guinea Pig Platelets was found to be 0.16 µM.
On to `CC(=O)O.CCOC(=O)CCNC(=O)CN1CCN(c2ccc(C(=N)N)cc2)C(=O)C1` [Example 27, Ethyl 3-{[2-(4-{4-[amino(imino)methyl]phenyl}-3-oxopiperazino)acetyl]amino}propanoate acetate], for which, in experiment [1], the “% of g.r. inhibition guinea pig ex vivo d = 150 mg/kg −1 h” value is listed as −8% and the “% of g.r. inhibition guinea pig ex vivo d = 150 mg/kg −2 h” value is −9%. The IC50 in the experiment with Guinea Pig Platelets (setting [2]) came out at 38 µM.
As to `CCOC(=O)CC(CCc1ccccc1)NC(=O)CN1CCN(c2ccc(C(N)=NO)cc2)CC1=O` (stereo not shown) [Example 7, Ethyl 3-{[2-(4-{4-[amino(hydroxyimino)methyl]phenyl}-2-oxopiperazino)acetyl]amino}-5-phenylpentanoate], the “anti-aggregating action ex-vivo in guinea pigs, oral dose 10 mg/kg, 1h” value in experiment [1] (10 mg/kg) was found to be 72%.
`CCOC(=O)CC(NC(=O)CN1CCN(c2ccc(C(=N)N)cc2)CC1=O)C1CCCCC1` (stereo not shown) [Example 23, Ethyl 3-{[2-(4-{4-[amino(imino)methyl]phenyl}-2-oxopiperazino)acetyl]amino}-3-cyclohexylpropanoate acetate]: the IC50 with Guinea Pig Platelets (setting [2]) was 46 µM.
As to `CC(=O)O.CCOC(=O)CCNC(=O)CN1CCN(c2ccc(C(=N)N)cc2)CC1=O` [Example 16, Ethyl 3-{[2-(4-{4-[amino(imino)methyl]phenyl}-2-oxopiperazino)acetyl]amino}proanoate acetate], in experiment [1], the “% of g.r. inhibition guinea pig ex vivo d = 150 mg/kg −1 h” value is reported as −75% and the “% of g.r. inhibition guinea pig ex vivo d = 150 mg/kg −2 h” value is −73%. For the same compound, the IC50 with Guinea Pig Platelets turned out to be 3.8 µM.
As to `CCOC(=O)CC(CC(C)C)NC(=O)CN1CCN(c2ccc(C(=N)N)cc2)CC1=O` (stereo not shown) [Example 24, Ethyl 3-{[2-(4-{4-[amino(imino)methyl]phenyl}-2-oxopiperazino)acetyl]amino}-5-methylhexanoate acetate], the IC50 in the experiment with Guinea Pig Platelets (setting [2]) turned out to be 4.6 µM.
The same measure, in the same setting: next, `CCOC(=O)CC(NC(=O)CN1CCN(c2ccc(C(=N)N)cc2)CC1=O)C(C)(C)C` (stereo not shown) [Example 25, Ethyl 3-{[2-(4-{4-[amino(imino)methyl]phenyl}-2-oxopiperazino)acetyl]amino}-4,4-dimethylpentanoate acetate]: 440 µM.
As for `CCOC(=O)CC(CCc1ccccc1)NC(=O)CN1CCN(c2ccc(C(=N)N3CCOCC3)cc2)CC1=O` (stereo not shown) [Example 33, Ethyl 3-{[2-{4-{4-[imino(morpholino)methyl]phenyl}-2-oxopiperazino)acetyl]amino)-5-phenylpentanoate], it took 0.65 µM to reach half-maximal inhibition in the experiment with Guinea Pig Platelets (setting [2]) (IC50).
